In patent publication US5362630A, “Isolation of pseudomonas salicylate hydroxlase and its use for the identification and quantitation of salicylate in body fluids” (Duke University, priority 1992, dated 1994):

What was measured:
salicylate hydroxylase [1] = test: Salicylate hydroxylase enzyme assay (NAD(P)H oxidation at 340 nm); type: biochemical, Pseudomonas
Experimental: Generally the reaction is carried out in a buffered solution (unless pH change or CO2 evolution is being measured). The buffer should offer near physiological conditions of pH and ionic strength for the enzyme. A potassium phosphate buffer, pH 7.6, at a concentration of 20 mM is preferred, although any pH from 6.5 to 8.9 and concentration from 5 to 100 mM is adequate. The sample may be added in any amount sufficient to trigger enzyme activity (if the salicylate is present in the sample) and the choice of sample size is discussed fully at a later time. From 1 to 40 μl per ml of total volume is convenient. Since the enzyme is generally available as a solution, it is conveniently added as such. About 10 μl of an enzyme solution containing 0.01 to 1 IU/ml is sufficient for most conditions, although the amount may be increased to speed up the reaction or decreased to slow the reaction down as needed. One IU (International Unit) is the amount of enzyme required to catalyze the disappearance of one μmole of NADH/min. NADH (or NADPH) may be present in a concentration of from about 10 to about 290 μM. Since the concentration of O2 in aqueous media is between 0.20 mM and 0.30 mM, it is not necessary to keep NAD(P)H concentration higher than […].
Enzyme Assay. The assay procedure for the enzyme and the definition of the enzyme were the same as that described in White-Stevens and Kamin (1970) except that EDTA and FAD were excluded in the assay mixture of the present work. The extinction coefficient of 6.22×10^3 M^-1 cm^-1 was used to convert the A340 change to micromoles of NADH oxidized.

[2] = cited from earlier work
salicylate hydroxylase [3] = settings: cited from earlier work; for product inhibition of the enzyme: found by White-Stevens and Kamin

Row | Compound | inhibition of / interference with the enzyme activity (salicylate hydroxylase [1]) | other results
1 | CC(=O)Nc1ccc(O)cc1 [acetaminophen] | do not interfere | –
2 | O=C(O)CN(CCN(CC(=O)O)CC(=O)O)CC(=O)O [EDTA, ethylenediaminetetracetic acid] | do not inhibit | –
3 | O=C(O)c1ccccc1O [salicylate] | – | therapeutic range, serum or plasma level [2]: 5 to 40 mg/dL
4 | CC(=O)Oc1ccccc1C(=O)O [aspirin, acetylsalicylic acid] | – | overdose serum/plasma level (serious poison, coma and death) [2]: over 45 mg/dl
5 | O=C(O)c1ccccc1 [benzoate] | – | Km (salicylate hydroxylase [3]; substrate or pseudosubstrate of salicylate hydroxylase, read-out: Km of the enzyme): 2000 µM
6 | O=C(O)CC(O)(CC(=O)O)C(=O)O [citrate] | do not inhibit | –
7 | Oc1ccccc1O [catechol] | – | product inhibition of the enzyme (salicylate hydroxylase [3]): no product inhibition
8 | NAD(P)^+ | – | product inhibition of the enzyme (salicylate hydroxylase [3]): no product inhibition
9 | heparin | no effect | –
10 | O=C(O)C(=O)O [oxalate] | do not inhibit | –
